These results are taken from patent US4298727A, “3',4'-Dideoxykanamycin A and 1-N-(S)-α-hydroxy-ω-aminoalkanoyl) derivatives thereof” (Zaidan Hojin Biseibutsu Kagaku KenkyuKai, priority 1979, dated 1981).

The term MIC denotes the lowest concentration found to suppress growth.

For assay [1], the system named is resistant bacteria. The following applies: in words, background art; cited from earlier work.
In assay [2] the test system is Staphylococcus aureus APOI. The assay is described as follows: MIC, standard serial dilution on nutrient agar. The following applies: Staphylococcus aureus, 18 h. Type of assay: cell-based.
Experimental: (§1) The minimum inhibitory concentrations (mcg/ml) of the new compounds of this invention against various microorganisms were determined according to a standard serial dilution method using nutrient agar incubation medium at 37° C., the estimation being made after 18 hours incubation.
In assay [3] the test system is Klebsiella pneumoniae 22 #3038. Put plainly: MIC, standard serial dilution on nutrient agar. The assay is classed as cell-based.
Assay [4] has as its system Klebsiella HOU. The assay is described as follows: MIC, standard serial dilution on nutrient agar. Type of assay: cell-based.
Experimental: as §1
Assay [5] deals with Escherichia coli K-12. The assay is described as follows: MIC, standard serial dilution on nutrient agar. The assay is classed as cell-based. The following applies: K12, 37° C., 18 hours.
Assay [6] has as its system Serratia CAT. The assay is described as follows: MIC, standard serial dilution on nutrient agar. The assay is classed as cell-based.
Experimental: as §1
The subject of assay [7] is Enterobacter 666. Put plainly: MIC, standard serial dilution on nutrient agar. The assay is classed as cell-based. The following applies: 37° C., 18 hours.
Experimental: as §1
Assay [8] relates to Proteus rettgeri AUB. The assay is described as follows: MIC, standard serial dilution on nutrient agar. Type of assay: cell-based. The note with it: Providencia rettgeri.
Experimental: as §1
The test system of assay [9] is Proteus vulgaris BAC. Put plainly: MIC, standard serial dilution on nutrient agar. Type of assay: cell-based.
Experimental: as §1
The test system of assay [10] is Serratia 7. The assay is described as follows: MIC, standard serial dilution on nutrient agar. Type of assay: cell-based. The following applies: Serratia, 7, 18 h.
Experimental: as §1
Assay [11] has as its system Sarcina lutea PCI 1001. The assay is described as follows: MIC, standard serial dilution on nutrient agar. Type of assay: cell-based. The note with it: Micrococcus luteus, PCI1001, 18 h.
Experimental: as §1
For assay [12], the system named is Erwinia 7-22. The assay is described as follows: MIC, standard serial dilution on nutrient agar. Type of assay: cell-based. The note with it: 722, 37° C., 18 hours.
Experimental: as §1
For assay [13], the system named is Staphylococcus aureus 209P. Put plainly: MIC, standard serial dilution on nutrient agar. Type of assay: cell-based.
Experimental: as §1
In assay [14] the test system is Providencia ZAO. The assay is described as follows: MIC, standard serial dilution on nutrient agar. The assay is classed as cell-based.
Experimental: as §1
Assay [15] concerns Klebsiella BRIA. The assay is described as follows: MIC, standard serial dilution on nutrient agar. The assay is classed as cell-based. The note with it: Klebsiella BRIA; nutrient agar, 37° C., 18 hours; read-out: MIC.
Experimental: as §1
The test system of assay [16] is Pseudomonas aeruginosa A3. The assay is described as follows: MIC, standard serial dilution on nutrient agar. The assay is classed as cell-based.
Experimental: as §1
Assay [17] deals with Providencia Pv 37. The assay is described as follows: MIC, standard serial dilution on nutrient agar. The note with it: PV37, 37° C., 18 hours. The assay is classed as cell-based.
Experimental: as §1
The test system of assay [18] is Staphylococcus aureus MS 9883. Put plainly: MIC, standard serial dilution on nutrient agar. Type of assay: cell-based. The following applies: MS9883; Staphylococcus aureus MS 9883; nutrient agar, 37° C., 18 hours; read-out: MIC.
For assay [19], the system named is Klebsiella THO. The assay is described as follows: MIC, standard serial dilution on nutrient agar. Type of assay: cell-based.
Experimental: as §1
Assay [20] deals with Providencia 19. The assay is described as follows: MIC, standard serial dilution on nutrient agar. The assay is classed as cell-based. The following applies: Providencia, 19, 18 h.
Experimental: as §1
Assay [21] has as its system Escherichia coli K-12 ML 1629. Put plainly: MIC, standard serial dilution on nutrient agar. Type of assay: cell-based. The note with it: K12ML1629, 37° C., 18 hours.
The subject of assay [22] is Pyocyanique. The assay is described as follows: MIC, standard serial dilution on nutrient agar. The following applies: 18 h. The assay is classed as cell-based.
Experimental: as §1
Assay [23] concerns Staphylococcus aureus MS 9610. The assay is described as follows: MIC, standard serial dilution on nutrient agar. The assay is classed as cell-based.
Assay [24] has as its system Staphylococcus epidermides 109. Put plainly: MIC, standard serial dilution on nutrient agar. Type of assay: cell-based.
Experimental: as §1
The test system of assay [25] is Enterobacter HAU. Put plainly: MIC, standard serial dilution on nutrient agar. The following applies: Enterobacter, 18 h. Type of assay: cell-based.
Experimental: as §1
In assay [26] the test system is Serratia BOT. Put plainly: MIC, standard serial dilution on nutrient agar. The assay is classed as cell-based.
Experimental: as §1

≈ marks a conversion by molar mass, not a printed value. Where two headings read alike, the source gives them in different places.

On to “1-N-((S)-2-hydroxy-4-aminobutyryl)-5-O-β-D-xylofuranosyl- or ribofuranosyl-neamine [butirosins]”, for which the “activity against resistant bacteria” value in [1] is “active against some kanamycin- and ribostamycin-resistant bacteria”.

With `NCC1CCC(O)C(OC2C(N)CC(NC(=O)C(O)CN)C(OC3OC(CO)C(O)C(N)C3O)C2O)O1` (racemic) [Compound No. 3, 1-N-(DL-2-hydroxy-3-aminopropionyl)-3',4'-dideoxykanamycin A], the MIC in assay [2] came to 1.56 µg/mL (≈ 2.89 µM); in assay [3] (Klebsiella pneumoniae 22 #3038, nutrient agar, 37° C., 18 hours, read-out: MIC.), 3.12 µg/mL (≈ 5.78 µM); in [4] (Klebsiella HOU, nutrient agar, 37° C., 18 hours, read-out: MIC.) it was 3.12 µg/mL (≈ 5.78 µM); in assay [5], 1.56 µg/mL (≈ 2.89 µM); in assay [6] (Serratia CAT, nutrient agar, 37° C., 18 hours, read-out: MIC.) it was 12.5 µg/mL (≈ 23.2 µM); in assay [7], 1.56 µg/mL (≈ 2.89 µM). The MIC amounted to 6.25 µg/mL (≈ 11.6 µM) in assay [8] (18 h); 3.12 µg/mL (≈ 5.78 µM) in assay [9] (Proteus vulgaris BAC, nutrient agar, 37° C., 18 hours, read-out: MIC.); 6.25 µg/mL (≈ 11.6 µM) in assay [10]; 6.25 µg/mL (≈ 11.6 µM) in [11]; 1.56 µg/mL (≈ 2.89 µM) in assay [12]; 3.12 µg/mL (≈ 5.78 µM) in [13] (Staphylococcus aureus 209P, nutrient agar, 37° C., 18 hours, read-out: MIC.). For the same compound, the MIC in assay [14] (Providencia ZAO, nutrient agar, 37° C., 18 hours, read-out: MIC.) was found to be 12.5 µg/mL (≈ 23.2 µM); in [15], 3.12 µg/mL (≈ 5.78 µM); in assay [16] (Pseudomonas aeruginosa A3, nutrient agar, 37° C., 18 hours, read-out: MIC.), 3.12 µg/mL (≈ 5.78 µM); in [17], 6.25 µg/mL (≈ 11.6 µM); in [18] it was 3.12 µg/mL (≈ 5.78 µM); in [19] (Klebsiella, 18 h), 1.56 µg/mL (≈ 2.89 µM). In addition, the MIC was 6.25 µg/mL (≈ 11.6 µM) in assay [20]; 1.56 µg/mL (≈ 2.89 µM) in [21]; 50 µg/mL (≈ 92.7 µM) in [22]; 3.12 µg/mL (≈ 5.78 µM) in assay [23] (MS9610, Staphylococcus aureus MS 9610, nutrient agar, 37° C., 18 hours, read-out: MIC.); 3.12 µg/mL (≈ 5.78 µM) in [24] (Staphylococcus epidermides 109, nutrient agar, 37° C., 18 hours, read-out: MIC.); 25 µg/mL (≈ 46.3 µM) in assay [25]. The MIC in assay [26] (Serratia BOT, nutrient agar, 37° C., 18 hours, read-out: MIC.) is 12.5 µg/mL (≈ 23.2 µM).

In the case of `NCC[C@H](O)C(=O)N[C@@H]1C[C@H](N)[C@@H](O[C@H]2O[C@H](CN)[C@@H](O)[C@H](O)[C@H]2O)[C@H](O)[C@H]1O[C@H]1O[C@H](CO)[C@@H](O)[C@H](N)[C@H]1O` [Amikacin, 1-N-((S)-2-hydroxy-4-aminobutyryl)-kanamycin A], the MIC in assay [2] worked out at 1.56 µg/mL (≈ 2.66 µM); in assay [3] (Klebsiella pneumoniae, 18 h), 3.12 µg/mL (≈ 5.33 µM); in [4] (Klebsiella, 18 h) it was 12.5 µg/mL (≈ 21.3 µM); in assay [5], 1.56 µg/mL (≈ 2.66 µM); in [6] (Serratia, 18 h), 12.5 µg/mL (≈ 21.3 µM); in assay [7], 1.56 µg/mL (≈ 2.66 µM). Besides, the MIC in [8] (Proteus rettgeri AUB, nutrient agar, 37° C., 18 hours, read-out: MIC.) is 6.25 µg/mL (≈ 10.7 µM); in assay [9] (Proteus vulgaris, 18 h) it was 3.12 µg/mL (≈ 5.33 µM); in assay [10] it was 12.5 µg/mL (≈ 21.3 µM); in [11], 3.12 µg/mL (≈ 5.33 µM); in assay [12], 1.56 µg/mL (≈ 2.66 µM); in [13] (Staphylococcus aureus, 209P, 18 h), 3.12 µg/mL (≈ 5.33 µM). Besides, the minimal inhibitory concentration (MIC) in assay [14] (Providencia, 18 h) was found to be 12.5 µg/mL (≈ 21.3 µM); in assay [15], 6.25 µg/mL (≈ 10.7 µM); in assay [16] (Pseudomonas aeruginosa, A3, 18 h), 1.56 µg/mL (≈ 2.66 µM); in [17] it was 12.5 µg/mL (≈ 21.3 µM); in [18], 6.25 µg/mL (≈ 10.7 µM); in assay [19] (Klebsiella THO, nutrient agar, 37° C., 18 hours, read-out: MIC.), 6.25 µg/mL (≈ 10.7 µM). The MIC in assay [20] was 12.5 µg/mL (≈ 21.3 µM); in [21], 1.56 µg/mL (≈ 2.66 µM); in assay [22], 50 µg/mL (≈ 85.4 µM); in assay [23] (Staphylococcus aureus, MS9610, 18 h), 3.12 µg/mL (≈ 5.33 µM); in assay [24] (Staphylococcus, 109, 18 h) it was 3.12 µg/mL (≈ 5.33 µM); in assay [25] it was 50 µg/mL (≈ 85.4 µM). The compound also yielded an MIC in assay [26] (Serratia, 18 h) of 12.5 µg/mL (≈ 21.3 µM). The “activity against resistant bacteria” value in assay [1] was “cannot be inactivated by the kanamycin-resistant bacteria”.
